Laboratory results published in US11279733B2, “Peptide antibiotics” (priority 2017, dated 2022).
Converted amounts (≈) assume the structure as drawn. Read-outs that look alike come from different tables or passages of the source. Positions of bridges follow the written chain, without caps; N, C: chain ends. Non-standard residues stand in square brackets, D forms with d. Residues, ends and D or L forms follow the SMILES beside them. *: point of attachment. Decanoyl(3R-OH) = CCCCCCC[C@@H](O)CC(=O)*; dBip = N[C@H](Cc1ccc(-c2ccccc2)cc1)C(=O)O; Octanoyl(3-OH) = CCCCCC(O)CC(=O)*; X13 = CCCCCCCCCC(O)CC(=O)*; dDab = NCC[C@@H](N)C(=O)O; Dab = NCC[C@H](N)C(=O)O; Dap = NC[C@H](N)C(=O)O; Pentanoyl = CCCCC(=O)*

Legend:
A. baumannii ATCC 19606 = details: ATCC 19606
Method in brief: (§1)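 Mid-log cultures grown in Mueller Hinton broth at 37° C were tested by 2-fold broth microdilution at 5×10^5 CFU/mL final. Compounds were dissolved in water and tested over a final range of 32 to 0.015 μg/mL.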

[1] = system: K. pneumoniae GN_102 PmxR; details: GN 102 PmxR
Method in brief: as §1

[2] = system: P. aeruginosa GN_105, PmxR; details: GN 105, PmxR
Method in brief: as §1

[3] = system: P. aeruginosa GN_043, PmxR
Method in brief: as §1

[4] = system: K. pneumoniae GN_106, PmxR; details: GN 106, PmxR
Method in brief: as §1

P. aeruginosa ATCC 27853 = details: ATCC 27853
Method in brief: as §1

[5] = system: S. aureus ATCC 25923, MSSA; details: ATCC 25923
Method in brief: as §1

E. coli ATCC 25922 = details: ATCC 25922
Method in brief: as §1

A. baumannii GN_093 PmxR = details: GN 093 PmxR
Method in brief: as §1

K. pneumoniae ATCC 13883 = details: ATCC 13883
Method in brief: as §1

[6] = system: K. pneumoniae ATCC 700603, MDR; details: ATCC 700603
Method in brief: as §1

[7] = system: K. pneumoniae ATCC BAA-2146, NDM-1 pos; details: ATCC BAA-2146
Method in brief: as §1

in vitro = details: human
Method: Cytotoxicity of the synthesised peptides was evaluated by comparison with commercially available colistin (polymyxin E), polymyxin B (Sigma chemical Co., St. Louis, Mo., U.S.A.) and synthetic octapeptin C4 by conducting lactate dehydrogenase (LDH) assay. CC50 values calculated based on curve fitting of dose dependent inhibition of cell growth represented the cytotoxicity of the peptide. Human kidney 2 (HK2) cells were seeded as 2000 cells per well in a 384 well cell culture plate in a final volume of 20 μL in DMEM/F12 medium (Invitrogen #11330057), in which 10% of FBS was added. Cells were incubated for 24 hours at 37° C., 5% CO2 to allow cells to attach to the plates. Similar conditions were employed for HEK293 and HepG2 cytotoxicity assays.
Colistin and polymyxin B were tested from a range of 2 mM to 0.9 μM. 120 μL of the 1 mM stock solutions in water of each synthesised peptide were freeze-dried and processed for LDH assay. After freeze-dry procedure, the compounds were reconstituted into 600 μM solutions using culture media. All tested compounds were diluted from 600 μM to 0.27 μM in 3-fold dilutions. Then 20 μL of each dilution was added into 20 uL of culture medium in quadruplicate to reach the final concentrations. The cells were incubated with the compounds for 24 h at 37° C., 5% CO2. After the incubation, 5 μL of culture medium was added to 50 μL of LDH assay buffer and incubated for 1 h at room temperature. The absorbance was read at 450 nm using Polarstar. The data was then analysed by Prism software. […] Nephrotoxicity Assessment in Human Proximal Tubule Cells.

Structure (SMILES)	CC50 at 24 h (in vitro) [µM]	MIC K. pneumoniae GN_102 PmxR [1] [µg/mL]	MIC P. aeruginosa GN_105, PmxR [2] [µg/mL]	MIC K. pneumoniae GN_106, PmxR [4] [µg/mL]	MIC A. baumannii GN_093 PmxR (A. baumannii GN_093 PmxR) [µg/mL]	MIC A. baumannii ATCC 19606 (A. baumannii ATCC 19606) [µg/mL]	MIC P. aeruginosa GN_043, PmxR ([3]; polymyxin-resistant) [µg/mL]	MIC P. aeruginosa ATCC 27853 (P. aeruginosa ATCC 27853) [µg/mL]	MIC S. aureus ATCC 25923, MSSA [5] [µg/mL]	MIC E. coli ATCC 25922 (E. coli ATCC 25922) [µg/mL]	MIC K. pneumoniae ATCC 13883 (K. pneumoniae ATCC 13883) [µg/mL]	MIC K. pneumoniae ATCC 700603, MDR [6] [µg/mL]	MIC K. pneumoniae ATCC BAA-2146, NDM-1 pos [7] [µg/mL]	MIC P. aeruginosa GN_043, PmxR [3] [µg/mL]	also measured
CCCCCCC[C@@H](O)CC(=O)N[C@H](CCN)C(=O)N[C@H]1CCNC(=O)[C@H](CC(C)C)NC(=O)[C@H](CCN)NC(=O)[C@H](CCN)NC(=O)[C@H](CC(C)C)NC(=O)[C@@H](Cc2ccccc2)NC(=O)[C@H](C)NC1=O [compound 4948, 3(R)OH-nC9CO-D-Dab-cyc[L-Dab-L-Ala-D-Phe-L-Leu-L-Dab-L-Dab-L-Leu]] ({Decanoyl(3R-OH)}-[dDab][Dab]A[dF]L[Dab][Dab]L; lactam 2-C)	112														MIC, A. baumannii ATCC 19606 (A. baumannii ATCC 19606): >32 µg/mL; MIC, K. pneumoniae Cl Koprana 10065 0661:1, PmxR [1]: 8 µg/mL (≈ 7.88 µM); MIC, P. aeruginosa PA9704, PmxR [2]: >32 µg/mL; MIC, P. aeruginosa FADDI-PA070, PmxR ([3]; Table 5, polymyxin-resistant): 1 µg/mL (≈ 0.985 µM); MIC, K. pneumoniae Cl 138-16347-20362, PmxR [4]: 16 µg/mL (≈ 15.8 µM); MIC, P. aeruginosa ATCC 27853 (P. aeruginosa ATCC 27853): 1 µg/mL (≈ 0.985 µM); MIC, S. Aureus ATCC 25923, MSSA [5]: >32 µg/mL; MIC, E. coli ATCC 25922 (E. coli ATCC 25922): 16 µg/mL (≈ 15.8 µM); MIC, A. baumannii Cl Ptyela 10073 4512:2, PmxR (A. baumannii GN_093 PmxR): >32 µg/mL; MIC, K. pneumoniae ATCC 13883 (K. pneumoniae ATCC 13883): 16 µg/mL (≈ 15.8 µM); MIC, K. pneumoniae ATCC 700603, MDR [6]: 16 µg/mL (≈ 15.8 µM); MIC, K. pneumoniae ATCC BAA-2146, NDM-1 pos [7]: 8 µg/mL (≈ 7.88 µM)
CCCCCCC[C@@H](O)CC(=O)N[C@H](C)C(=O)N[C@H]1CCNC(=O)[C@H](CC(C)C)NC(=O)[C@H](CCN)NC(=O)[C@H](CCN)NC(=O)[C@H](CC(C)C)NC(=O)[C@@H](Cc2ccccc2)NC(=O)[C@H](CCN)NC1=O [compound 4951, 3(R)OH-nC9CO-D-Ala-cyc[L-Dab-L-Dab-D-Phe-L-Leu-L-Dab-L-Dab-L-Leu]] ({Decanoyl(3R-OH)}-[dA][Dab][Dab][dF]L[Dab][Dab]L; lactam 2-C)	120	4 (≈ 3.94 µM)	16 (≈ 15.8 µM)	8 (≈ 7.88 µM)	32 (≈ 31.5 µM)										MIC, A. baumannii ATCC 19606 (A. baumannii ATCC 19606): 32 µg/mL (≈ 31.5 µM); MIC P. aeruginosa GN_043, PmxR ([3]; Table 6, polymyxin-resistant): 8 µg/mL (≈ 7.88 µM); MIC, P. aeruginosa ATCC 27853 (P. aeruginosa ATCC 27853): 8 µg/mL (≈ 7.88 µM); MIC, S. aureus ATCC 25923, MSSA [5]: 32 µg/mL (≈ 31.5 µM); MIC, E. coli ATCC 25922 (E. coli ATCC 25922): 16 µg/mL (≈ 15.8 µM); MIC, K. pneumoniae ATCC 13883 (K. pneumoniae ATCC 13883): 16 µg/mL (≈ 15.8 µM); MIC, K. pneumoniae ATCC 700603, MDR [6]: 8 µg/mL (≈ 7.88 µM); MIC, K. pneumoniae ATCC BAA-2146, NDM-1 pos [7]: 8 µg/mL (≈ 7.88 µM)
CCCCCCC[C@@H](O)CC(=O)N[C@H](CCN)C(=O)N[C@H]1CCNC(=O)[C@H](Cc2ccc(O)cc2)NC(=O)[C@H](CCN)NC(=O)[C@H](CCN)NC(=O)[C@H](CC(C)C)NC(=O)[C@@H](Cc2ccccc2)NC(=O)[C@H](CCN)NC1=O [compound 6511, 3(R)OH-nC9CO-D-Dab-cyc[L-Dab-L-Dab-D-Phe-L-Leu-L-Dab-L-Dab-L-Tyr]] ({Decanoyl(3R-OH)}-[dDab][Dab][Dab][dF]L[Dab][Dab]Y; lactam 2-C)	76	8 (≈ 7.31 µM)	4 (≈ 3.66 µM)	8 (≈ 7.31 µM)	32 (≈ 29.2 µM)	32 (≈ 29.2 µM)	1 (≈ 0.914 µM)	2 (≈ 1.83 µM)	32 (≈ 29.2 µM)	8 (≈ 7.31 µM)	8 (≈ 7.31 µM)	4 (≈ 3.66 µM)	2 (≈ 1.83 µM)		
CCCCCC(O)CC(=O)N[C@H](CCN)C(=O)N[C@H]1CCNC(=O)[C@H](CC(C)C)NC(=O)[C@H](CCN)NC(=O)[C@H](CCN)NC(=O)[C@H](CC(C)C)NC(=O)[C@@H](Cc2ccccc2)NC(=O)[C@H](CCN)NC1=O (stereo partly drawn) [compound 5012, 3OH-nC7CO-D-Dab-cyc[L-Dab-L-Dab-D-Phe-L-Leu-L-Dab-L-Dab-L-Leu]] ({Octanoyl(3-OH)}-[dDab][Dab][Dab][dF]L[Dab][Dab]L; lactam 2-C)	130		4 (≈ 3.94 µM)	>32	>32	>32		4 (≈ 3.94 µM)	>32	32 (≈ 31.5 µM)	8 (≈ 7.87 µM)	16 (≈ 15.7 µM)	32 (≈ 31.5 µM)	4 (≈ 3.94 µM)	
CCCCCCC[C@@H](O)CC(=O)N[C@H](CCN)C(=O)N[C@H]1CCNC(=O)[C@H](Cc2ccccc2)NC(=O)[C@H](CN)NC(=O)[C@H](CCN)NC(=O)[C@H](CC(C)C)NC(=O)[C@@H](Cc2ccc(-c3ccccc3)cc2)NC(=O)[C@H](CCN)NC1=O [compound 5384, 3(R)OH-nC9CO-D-Dab-cyc[L-Dab-L-Dab-D-Bip-L-Leu-L-Dab-L-Dap-L-Phe]] ({Decanoyl(3R-OH)}-[dDab][Dab][Dab][dBip]L[Dab][Dap]F; lactam 2-C)	24	16 (≈ 14 µM)	4 (≈ 3.51 µM)	8 (≈ 7.01 µM)	4 (≈ 3.51 µM)	8 (≈ 7.01 µM)	4 (≈ 3.51 µM)	4 (≈ 3.51 µM)	4 (≈ 3.51 µM)	4 (≈ 3.51 µM)	4 (≈ 3.51 µM)	8 (≈ 7.01 µM)	4 (≈ 3.51 µM)		
CCCCCCC[C@@H](O)CC(=O)N[C@H](CCN)C(=O)N[C@H]1CCNC(=O)[C@H](Cc2ccccc2)NC(=O)[C@H](CCN)NC(=O)[C@H](CCN)NC(=O)[C@H](CC(C)C)NC(=O)[C@@H](Cc2ccccc2)NC(=O)[C@H](CCN)NC1=O [compound 5004, 3(R)OH-nC9CO-D-Dab-cyc[L-Dab-L-Dab-D-Phe-L-Leu-L-Dab-L-Dab-L-Phe]] ({Decanoyl(3R-OH)}-[dDab][Dab][Dab][dF]L[Dab][Dab]F; lactam 2-C)	23		8 (≈ 7.42 µM)			4 (≈ 3.71 µM)	2 (≈ 1.85 µM)	4 (≈ 3.71 µM)		8 (≈ 7.42 µM)	4 (≈ 3.71 µM)	8 (≈ 7.42 µM)	4 (≈ 3.71 µM)		
CCCCC(=O)N[C@H](CCN)C(=O)N[C@H]1CCNC(=O)[C@H](CC(C)C)NC(=O)[C@H](CCN)NC(=O)[C@H](CCN)NC(=O)[C@H](CC(C)C)NC(=O)[C@@H](Cc2ccccc2)NC(=O)[C@H](CCN)NC1=O [compound 919, C4CO-D-Dab-cyc[L-Dab-L-Dab-D-Phe-L-Leu-L-Dab-L-Dab-L-Leu]] (Pentanoyl-[dDab][Dab][Dab][dF]L[Dab][Dab]L; lactam 2-C)	> 300					16 (≈ 16.7 µM)		2 (≈ 2.09 µM)		32 (≈ 33.4 µM)	32 (≈ 33.4 µM)	>32	16 (≈ 16.7 µM)	>32	
CCCCCCCCCC(O)CC(=O)N[C@H](CCN)C(=O)N[C@H]1CCNC(=O)[C@H](CC(C)C)NC(=O)[C@H](CCN)NC(=O)[C@H](CCN)NC(=O)[C@H](CC(C)C)NC(=O)[C@@H](Cc2ccccc2)NC(=O)[C@H](CCN)NC1=O (stereo partly drawn) [compound 5014, 3OH-nC11CO-D-Dab-cyc[L-Dab-L-Dab-D-Phe-L-Leu-L-Dab-L-Dab-L-Leu]] (X13-[dDab][Dab][Dab][dF]L[Dab][Dab]L; lactam 2-C)	19		32 (≈ 29.8 µM)			8 (≈ 7.46 µM)		4 (≈ 3.73 µM)	4 (≈ 3.73 µM)	2 (≈ 1.86 µM)	4 (≈ 3.73 µM)	8 (≈ 7.46 µM)	16 (≈ 14.9 µM)	4 (≈ 3.73 µM)	
